The values that follow come from US20240299353A1, “COMPOSITIONS AND METHODS FOR TREATING […] 5-MEO-DMT” (Alvarius Pharmaceuticals Ltd., priority 2021, published 2024).

The structures appear in SMILES notation.

Test [1] relates to primary hippocampal neurons. The experiment in a line: Antagonist pre-treatment studies of neuronal structural change, Sholl analysis. In kind it is cell-based, rat. The settings on record: for AUC of the Sholl plot / normalised AUC of the Sholl plot: vehicle pre-treated; for neuronal structural complexity (normalised AUC): meta-analysis, combined vehicle pre-treated groups. Here is the method:
Primary hippocampal cultures were grown on 18 mm glass coverslips at a density of 1×10^6 cells as described. On 3 DIV all cells underwent a full medium change. […] On 4 DIV, all cells underwent a second full medium change. Cells in the combination group were treated with 2 μM 5-MeO-DMT for a further 24 hours with all other groups beginning a 24-hour treatment. After treatment was completed the cells were fixed and processed as described below.
Based on the findings with other psychedelic drugs that share structural and behavioral similarities to 5-MeO-DMT we selected ANA-12 (Sigma), an antagonist of TrkB, the BDNF receptor, and rapamycin (ThermoFischer) an antagonist of the mammalian target of rapamycin (mTOR). Due to the affinity and known behavioral change induced by 5-MeO-DMT at the 5-HT1AR and 5-HT2AR we assessed their contribution to structural changes mediated by 5-MeO-DMT. The receptors were antagonized with WAY-100635 maleate (Tocris) or Ketanserin (Axxora), respectively. For all antagonist studies the antagonist under investigation was added 15 mins prior to drug treatment. […] ANA-12, Ketanserin and rapamycin were dissolved in dimethyl sulfoxide (DMSO) with a final concentration of 0.01-0.04% for treatment. WAY100635 was dissolved in sterile dH2O.
After termination of drug treatment coverslips were processed and imaged as outlined for immunocytochemistry. In all instances NeuN antibody staining was used to visualize projections from the cell body. Images were analyzed using the Simple Neurite Tracer and Sholl analysis plug-ins for ImageJ Fiji. For the Sholl analysis circle radii of 2 μm increments were used. All images were taken and analyzed by an experimenter blinded to treatment conditions.
Statistical Analysis—Data are represented as mean±SEM. Statistical analyses were performed using GraphPad Prism (version 5). For analyses involving comparison of three or more groups, a one-way ANOVA with Bonferroni's post-hoc test was utilized where appropriate. No statistics were calculated for the individual points of the Sholl plots, instead, statistical analyses were performed on the aggregate data, the area under the curve (AUC) of the Sholl plot. Secondary measurements were the Nmax, the maximum number of intersections measured by the Sholl analysis, which indicated the number of projections emanating from a neuron and the average length of primary neurites originating from the cell soma.

The next test concerns rats. The experiment in a line: Forced swim test. In kind it is in vivo. The settings on record: cohort 2; for immobility or time spent swimming: between treatment groups. Here is the method: In this instance the animals were 9 weeks old at the initiation of drug exposures and we selected just the high (20 mg/kg) dose of 5-MeO-DMT from the molecular study. […] Due to the number of behavioral paradigms to be completed by each animal we divided the study into two cohorts staggered by two weeks with 8 animals coming from each cohort to make up the 16 animals for each treatment group. 23 hours after 5-MeO-DMT administration the animals were introduced to the open field arena where they were allowed to freely explore the area for 5 mins. Following the open field test (OFT) animals were returned to their home cage for 2 hours before beginning either the elevated plus maze (EPM) or pre-pulse inhibition (PPI) testing. 24 hours after completing the OFT animals were returned to the chamber for the first session in novel object (NO1) testing. The animals were returned to their home cage for 2 hours before beginning the EPM or PPI test. 24 hours after NO1 the animals returned to the open field chamber for the second session in novel object (N02) testing. After completing N02 animals were returned to their home cage for 2 hours before they underwent the forced swim test (FST) pre-test. 24 hours later the animals were returned to the FS cylinders for the FST. Upon completion of the FST all animals were euthanized. A timeline of this experimental cohort is described in FIG. 8A.
The experiment was conducted as described for cohort 1 for the first 13 days of injections. There are a number of notable differences in experimental procedures between the two cohorts of animals to be highlighted. […] Finally, the dose of 5-MeO-DMT was reduced to 10 mg/kg. […]
The FST apparatus consisted of a clear Plexiglas cylinder measuring 80 cm tall, 20 cm in diameter and filled with 40 cm of 24+1° C. water. […] 24 hours later, rats were again placed in the FST apparatus for 5 min and their activity was video recorded (FIG. 12A-12B). Each video was scored for immobility, swimming, and climbing behavior by trained blinded observers.

A further test has as its system hippocampal proteins. As to the kind of experiment: Hippocampal LC-MS/MS proteomics, chronic cocaine with single psychedelic administration. In kind it is in vivo, Male Wister rats. Here is the method: Animals were then randomly allocated to one of five groups and received a single i.p. injection of one of vehicle, 5 mg/kg 5-Meo-DMT, 0.14 mg/kg LSD, 1 mg/kg psilocybin, or 1 mg/kg DOI. On day 15, animals were euthanised and the hippocampus blunt dissected, snap frozen in liquid nitrogen and stored at −80° C. until further processing.
Protein from hippocampal tissue was processed for liquid chromatography tandem Mass Spectrometry (LC-MS/MS). Samples were run on a Thermo Scientific Q Exactive Mass Spectrometer connected to a Dionex Ultimate 3000 (RSLCnano) chromatography system in the UCD Conway Institute Core Mass Spectrometry Facility. Peptide and protein identification of MS/MS spectra were searched against the rat UniProt database using carbamidomethylation (C) as a fixed modification and acetylation (protein N terminus) and oxidation (M) as variable modifications with a false discovery rate filtering of 0.01. MaxQuant was using to generate label-free quantitative (LFQ) ion intensities and the Perseus statistical software contained in the MaxQuant package was used to analyse LFQ ion intensity. Statistical significance (p<0.05, FC±20%) of mean LFQ intensity between treatment groups was determined by two sample t-test. […] Networks were visualised using the stringApp (version 1.6.0) plugin for the Cytoscape software platform (version 3.8.2).

Where [2] appears, read: ANA-12 study, 5-MeO-DMT or cocaine alone.
Setting [3] is: WAY100635 study, 5-MeO-DMT (20 μM) or cocaine (25 μM) alone.
Setting [4] is: rapamycin study, 5-MeO-DMT or cocaine alone.

In the case of `COC(=O)[C@H]1[C@@H](OC(=O)c2ccccc2)C[C@@H]2CC[C@H]1N2C.Cl` [cocaine, cocaine hydrochloride, reference compound], the “AUC of the Sholl plot” value in test [1] (setting [2]) is given as “increased the AUC relative to control”. Besides, the “normalised AUC of the Sholl plot” value in test [1] (setting [3]) and in test [1] (setting [4]) was “increased the normalised AUC” throughout. Also, the “neuronal structural complexity (normalised AUC)” value in test [1] (agent alone) is listed as “significantly increased neuronal structural complexity”. Moreover, the “immobility or time spent swimming” value with rats is on record as “no differences in immobility or time spent swimming”. For the same compound, in the test on hippocampal proteins (cocaine 20 mg/kg i.p. daily for 14 days), the “significantly regulated proteins in the hippocampus between saline and cocaine” value is listed as 85 proteins.
As to `COc1ccc2[nH]cc(CCN(C)C)c2c1` [5-MeO-DMT, 5-methoxy-N,N-dimethyltryptamine], the “AUC of the Sholl plot” value in test [1] (setting [2]) is “increased the AUC relative to control”; in test [1] (ANA-12 study, cocaine and 5-MeO-DMT combined) it was “increased the AUC relative to control”. In addition, the average neurite length entry in test [1] (ANA-12 study, 5-MeO-DMT alone) was “significantly increased”; in test [1] (ANA-12 study, 5-MeO-DMT in combination with cocaine) it was “significantly increased”; in test [1] (WAY100635 study, 5-Meo+vehicle), “significantly increased”. Besides, the “normalised AUC of the Sholl plot” value in test [1] (setting [3]) was “increased the normalised AUC”; in test [1] (WAY100635 study, cocaine followed by 5-MeO-DMT), “no change between the combination group and control”; in test [1] (ketanserin study, cocaine followed by 5-MeO-DMT) it was “reduced AUC relative to control”; in test [1] (setting [4]) it was “increased the normalised AUC”; in test [1] (rapamycin study, cocaine followed by 5-MeO-DMT) it was “no change between the combination group and control”. For the same compound, the “neuronal structural complexity (normalised AUC)” value in test [1] (agent alone) and in test [1] (cocaine+5-MeO-DMT combination) was “significantly increased neuronal structural complexity” in each case. For the same compound, the “immobility or time spent swimming” value with rats is given as “no differences in immobility or time spent swimming”. In addition, the climbing time entry with rats (cocaine and 5-MeO-DMT (10 mg/kg) combination relative to control) is recorded as “significant increase in climbing time”. Moreover, the “differential expression of proteins in the control hippocampus” value with hippocampal proteins (single i.p. dose (5-MeO-DMT 5 mg/kg, LSD 0.14 mg/kg, psilocybin 1 mg/kg, DOI 1 mg/kg) vs saline-saline, p<0.05, FC ±20%) worked out at 64 proteins. In addition, the “differential expression of proteins in the chronic cocaine hippocampus” value in the test on hippocampal proteins (single i.p. dose after 14 days cocaine 20 mg/kg (5-MeO-DMT 5, LSD 0.14, psilocybin 1, DOI 1 mg/kg) vs cocaine-saline) stood at 74 proteins. For the same compound, the “reversal of chronic cocaine mediated proteomic changes in the hippocampus” value in the test on hippocampal proteins (single treatment (5-MeO-DMT 5, LSD 0.14, psilocybin 1, DOI 1 mg/kg i.p.)) was 77%.
